Measured values taken from ChEMBL document CHEMBL4219156, “Synthesis, evaluation and CoMFA/CoMSIA study of nitrofuranyl methyl N-heterocycles as novel antitubercular agents” (2018).
In brackets after ≈: the same amount, converted by molar mass.

Tested on: Mycobacterium tuberculosis
Test: Antitubercular activity against Mycobacterium tuberculosis H37Rv ATCC 27294 after 7 days by MABA
Assay type: functional
Parameters: -logMIC: unit not given here
Settings: for MIC: Mycobacterium tuberculosis, H37Rv ATCC 27294, 168 h

SMILES | -logMIC | MIC [µg/mL]
CNc1ccc(C(=O)N2CCN(Cc3ccc([N+](=O)[O-])o3)CC2)cc1 | 3.315 | 0.484 (≈ 1.41 µM)
O=C(CN1CCN(Cc2ccc([N+](=O)[O-])o2)CC1)Nc1ccccc1 | 1.99 | 10.2 (≈ 29.7 µM)
O=[N+]([O-])c1ccc(CN2CCNCC2)o1 | 3.616 | 0.242 (≈ 1.15 µM)
O=[N+]([O-])c1ccc(CN2CCC3(CC2)CCN(S(=O)(=O)c2ccc(Cl)cc2)CC3)o1 | 4.51 | 0.031 (≈ 0.0683 µM)
COc1ccc(C2CCN(Cc3ccc([N+](=O)[O-])o3)CC2)cc1 | 3.4 | 0.398 (≈ 1.26 µM)
COc1ccc(C(=O)N2CCN(Cc3ccc([N+](=O)[O-])o3)CC2)cc1 | 3.408 | 0.391 (≈ 1.13 µM)
CC(=O)N1CCC2(CCN(Cc3ccc([N+](=O)[O-])o3)CC2)CC1 | – | 32 (≈ 99.6 µM)
CC(C)(C)c1cccc(N2CCC3(CCN(Cc4ccc([N+](=O)[O-])o4)CC3)CC2)c1 | >4.796 | < 0.016
CC(C)CC(=O)N1CCN(Cc2ccc([N+](=O)[O-])o2)CC1 | 2.51 | 0.498 (≈ 1.69 µM)
O=[N+]([O-])c1ccc(CN2CCC(=NOCc3ccccc3)CC2)o1 | 3.608 | 0.247 (≈ 0.75 µM)
O=C(CN1CCN(Cc2ccc([N+](=O)[O-])o2)CC1)Oc1ccccc1 | 3.325 | 0.473 (≈ 1.37 µM)
O=[N+]([O-])c1ccc(CN2CC3CN(S(=O)(=O)c4ccc(C(F)(F)F)cc4)CC3C2)o1 (stereo not drawn) | – | 0.123 (≈ 0.276 µM)
CC(=O)CN1CCN(Cc2ccc([N+](=O)[O-])o2)CC1 | 2.117 | 7.63 (≈ 28.6 µM)
CC(C)(C)C(=O)N1CCN(Cc2ccc([N+](=O)[O-])o2)CC1 | 3.023 | 0.948 (≈ 3.21 µM)
CC(=O)N1CCN(Cc2ccc([N+](=O)[O-])o2)CC1 | 1.922 | 12 (≈ 47.3 µM)
CCON=C1CCN(Cc2ccc([N+](=O)[O-])o2)CC1 | 3.029 | 0.935 (≈ 3.5 µM)
O=C(C1CCCCC1)N1CC2CN(Cc3ccc([N+](=O)[O-])o3)CC2C1 (stereo not drawn) | – | 7.68 (≈ 22.1 µM)
CC(C)(C)c1ccc(N2CCC3(CCN(Cc4ccc([N+](=O)[O-])o4)CC3)CC2)cc1 | >4.796 | < 0.016
O=[N+]([O-])c1ccc(CN2CCc3ccc(Br)cc3C2)o1 | 4.206 | 0.062 (≈ 0.184 µM)
O=[N+]([O-])c1ccc(CN2Cc3ccc(F)cc3C2)o1 | 3.31 | 0.49 (≈ 1.87 µM)
O=[N+]([O-])c1ccc(S(=O)(=O)N2CC3CN(Cc4ccc([N+](=O)[O-])o4)CC3C2)cc1 (stereo not drawn) | – | 0.235 (≈ 0.556 µM)
CC(C)CC(=O)N1CCC2(CCN(Cc3ccc([N+](=O)[O-])o3)CC2)CC1 | – | 2.41 (≈ 6.63 µM)
O=[N+]([O-])c1ccc(CON=C2CCN(Cc3ccc([N+](=O)[O-])o3)CC2)cc1 | 3.742 | 0.181 (≈ 0.484 µM)
CON=C1CCN(Cc2ccc([N+](=O)[O-])o2)CC1 | 2.701 | 1.99 (≈ 7.85 µM)
O=[N+]([O-])c1ccc(CN2Cc3ccccc3C2)o1 | 2.749 | 1.78 (≈ 7.3 µM)

SMILES | -logMIC | MIC [µg/mL]
O=C(C1CCCCC1)N1CCN(Cc2ccc([N+](=O)[O-])o2)CC1 | 3.621 | 0.239 (≈ 0.744 µM)
O=[N+]([O-])c1ccc(CN2CCC(c3ccc(F)cc3)CC2)o1 | 3.337 | 0.46 (≈ 1.51 µM)
O=C(c1ccccc1)N1CCN(Cc2ccc([N+](=O)[O-])o2)CC1 | 2.733 | 1.85 (≈ 5.86 µM)
O=C(C1CCCCC1)N1CCC2(CCN(Cc3ccc([N+](=O)[O-])o3)CC2)CC1 | – | 3.87 (≈ 9.93 µM)
O=[N+]([O-])c1ccc(CN2CCC(c3ccc(C(F)(F)F)cc3)CC2)o1 | 2.609 | 2.46 (≈ 6.94 µM)
CCOC(=O)CN1CCN(Cc2ccc([N+](=O)[O-])o2)CC1 | 2.414 | 3.85 (≈ 13 µM)
CC(C)(C)c1ccc(S(=O)(=O)N2CC3CN(Cc4ccc([N+](=O)[O-])o4)CC3C2)cc1 (stereo not drawn) | – | 0.126 (≈ 0.291 µM)
N#Cc1ccc2c(c1)CN(Cc1ccc([N+](=O)[O-])o1)C2 | 3.766 | 0.171 (≈ 0.635 µM)
CC(=O)CCN1CC2CN(Cc3ccc([N+](=O)[O-])o3)CC2C1 (stereo not drawn) | – | 32 (≈ 104 µM)
CC(C)(C)OC(=O)CN1CCN(Cc2ccc([N+](=O)[O-])o2)CC1 | 2.514 | 3.06 (≈ 9.4 µM)
COc1ccc2c(c1)CN(Cc1ccc([N+](=O)[O-])o1)CC2 | 3.918 | 0.121 (≈ 0.42 µM)
O=[N+]([O-])c1ccc(CN2CCC(=NOCc3ccc(C(F)(F)F)cc3)CC2)o1 | 3.673 | 0.212 (≈ 0.534 µM)
O=C(c1ccc(F)cc1)N1CCN(Cc2ccc([N+](=O)[O-])o2)CC1 | 2.779 | 1.66 (≈ 4.99 µM)
CCC(C)C(=O)N1CCN(Cc2ccc([N+](=O)[O-])o2)CC1 (stereo not drawn) | 3.303 | 3.09 (≈ 10.5 µM)
COc1ccc(S(=O)(=O)N2CC3CN(Cc4ccc([N+](=O)[O-])o4)CC3C2)cc1 (stereo not drawn) | – | 0.405 (≈ 0.994 µM)
CC(C)(C)c1ccc(N2CCN(Cc3ccc([N+](=O)[O-])o3)CC2)cc1 | 4.796 | 0.016 (≈ 0.0466 µM)
O=[N+]([O-])c1ccc(CN2CCc3ccc(Cl)cc3C2)o1 | 3.962 | 0.109 (≈ 0.372 µM)
COc1ccc(CON=C2CCN(Cc3ccc([N+](=O)[O-])o3)CC2)cc1 | 4.293 | 0.051 (≈ 0.142 µM)
O=[N+]([O-])c1ccc(CN2CCC(c3ccc(Br)cc3)CC2)o1 | 3.31 | 0.49 (≈ 1.34 µM)
O=[N+]([O-])c1ccc(CN2CCC(c3ccc(OC(F)(F)F)cc3)CC2)o1 | 3.303 | 0.497 (≈ 1.34 µM)
CN(C)C(=O)CN1CCN(Cc2ccc([N+](=O)[O-])o2)CC1 | 1.516 | 30.5 (≈ 103 µM)
N#Cc1ccc2c(c1)CN(Cc1ccc([N+](=O)[O-])o1)CC2 | 3.988 | 0.103 (≈ 0.364 µM)
CC(C)(C)C(=O)N1CC2CN(Cc3ccc([N+](=O)[O-])o3)CC2C1 (stereo not drawn) | – | 1.55 (≈ 4.81 µM)
NNC(=O)c1ccncc1 [ISONIAZID] | – | 0.038 (≈ 0.277 µM)
CO[C@H]1/C=C/O[C@@]2(C)Oc3c(C)c(O)c4c(O)c(c(/C=N/N5CCN(C)CC5)c(O)c4c3C2=O)NC(=O)/C(C)=C\C=C\[C@H](C)[C@H](O)[C@@H](C)[C@@H](O)[C@@H](C)[C@H](OC(C)=O)[C@@H]1C [RIFAMPIN] | – | 0.127 (≈ 0.154 µM)
